# Read-outs that look alike come from different tables or passages of the source.
# How the values were obtained:
# [1] = target: BaF3 PIM1 cells (Homo sapiens, UniProt P11309); assay: BaF3 PIM1 cell proliferation (Cell Titer Glo); type: cell-based
# [2] = target: BaF3 PIM2 cells (Homo sapiens, UniProt Q9P1W9); assay: BaF3 PIM2 cell proliferation (Cell Titer Glo); type: cell-based
# Summary of the method: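 BaF3 cells stably transfected with PIM2 were cultured in RPMI with 10% FBS, 2 mM L-Glutamine and 250 μg/mL G418, then plated at 5 k/well in 45 μL/well of a 384-well plate. Test compound was added at 5 μL/well, cells incubated overnight, and viability measured by luminescence after 30 minutes with Cell Titer Glo (50 μL/well).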
# [3] = tested on: MM1.S cells; assay: MM1.S cell proliferation, 72 hours (Cell Titer Glo); type: cell-based; settings: Homo sapiens
# Summary of the method: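 BaF3 parental cells (2 k/well, with 2 ng/mL mIL-3) were treated overnight, and MM1.S cells (10 k/well) were treated for 72 h at 37 °C. Viability was read by CellTiter-Glo luminescence. IC50/EC50 values were calculated from the luminescence data.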
# [4] = tested on: BaF3 parental cells; assay: BaF3 parental cell proliferation (Cell Titer Glo); type: cell-based; settings: Mus musculus, Table 3
# Experimental: BaF3 parental line was obtained from the DSMZ repository. BaF3 lines transfected with PIM1 or PIM2 were generated. Mouse IL-3 was purchased from R&D Systems. G418 was purchased from Clontech. Media for BaF3 parental line contained RPMI, 10% FBS, 2 mM L-Glutamine, 2 ng/mL mIL-3. Media for BaF3 PIM1 & 2 lines contained RPMI, 10% FBS, 2 mM L-Glutamine, […]. Media for MM1.S line contained RPMI, 10% FBS, 2 mM L-Glutamine.
# BaF3 parental cells, BaF3 PIM1 cells, BaF3 PIM2 cells, and MM1.S cells were seeded at 2 k/well, 5 k/well, 5 k/well, and 10 k/well respectively, in a 384-well plate, at 45 μL/well. Test compound was added at 5 μL/well. BaF3 cells (parental and transfected) were incubated overnight, while MM1.S cells were incubated for 72 hours at 37° C., 5% CO2. Cell Titer Glo Reagent (Promega) was added at 50 μL/well, the plates were incubated for 30 minutes, and their luminescence read on an HT Analyst. IC50/EC50 values for the test compound were calculated.
# [5] = tested on: EOL-1; assay: EOL-1 cell assay; type: cell-based; settings: Homo sapiens, EOL1; Table 3
# [6] = tested on: multiple myeloma cell line KMS11; assay: Cell Titer Glo proliferation and survival assay, KMS11 and other multiple myeloma cell lines; type: cell-based; settings: Homo sapiens, KMS-11; single agent; ten multiple myeloma cell lines tested; read-out: IC50 against myeloma cell lines, single agent
# Description: The results obtained here are representative of a total of ten multiple myeloma cell lines tested.
# [7] = target: T1, PIM1 (Homo sapiens, UniProt P11309); assay: Pim-1 kinase enzymatic assay (Caliper LC3000, FAM-Pimtide substrate); type: biochemical; settings: 20 pM PIM1, 10 μM ATP, 90 minutes; read-out: PIM1 LC3K (Ki)
# T1 construct: made in house
# T1 sequence (P11309 whole entry): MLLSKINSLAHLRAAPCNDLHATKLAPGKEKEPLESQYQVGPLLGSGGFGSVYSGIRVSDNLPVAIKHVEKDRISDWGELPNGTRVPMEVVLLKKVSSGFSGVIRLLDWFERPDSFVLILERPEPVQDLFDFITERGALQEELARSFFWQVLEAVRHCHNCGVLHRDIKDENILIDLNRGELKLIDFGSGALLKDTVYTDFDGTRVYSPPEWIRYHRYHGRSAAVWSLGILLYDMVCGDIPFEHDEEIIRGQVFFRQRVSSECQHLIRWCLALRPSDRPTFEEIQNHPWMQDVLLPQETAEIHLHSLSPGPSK
# [8] = target: T2, PIM2 (Homo sapiens, UniProt Q9P1W9); assay: Pim-2 kinase enzymatic assay (Caliper LC3000, FAM-Pimtide substrate); type: biochemical; settings: 50 pM PIM2, 10 μM ATP, 90 minutes; read-out: PIM2 LC3K (Ki)
# T2 construct: made in house
# T2 sequence (Q9P1W9 whole entry): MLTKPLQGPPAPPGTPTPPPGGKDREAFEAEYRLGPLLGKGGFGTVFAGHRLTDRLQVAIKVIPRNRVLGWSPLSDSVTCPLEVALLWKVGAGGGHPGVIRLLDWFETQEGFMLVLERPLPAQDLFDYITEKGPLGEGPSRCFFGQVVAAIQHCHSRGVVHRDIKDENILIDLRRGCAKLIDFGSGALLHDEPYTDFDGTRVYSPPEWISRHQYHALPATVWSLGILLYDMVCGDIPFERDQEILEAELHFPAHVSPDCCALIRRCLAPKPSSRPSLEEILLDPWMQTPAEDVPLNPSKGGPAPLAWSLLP
# [9] = target: T3, PIM3 (Homo sapiens, UniProt Q86V86); assay: Pim-3 kinase enzymatic assay (Caliper LC3000, FAM-Pimtide substrate); type: biochemical; settings: 55 pM PIM3, 10 μM ATP, 90 minutes; read-out: PIM3 LC3K (Ki)
# T3 construct: made in house
# [10] = tested on: multiple myeloma cell line MM.1S; assay: MM.1S 3 day proliferation assay, single agents and combinations (Cell-Titer Glo); type: cell-based; settings: FIG. 1
# Experimental: The in vitro potency of the combinations of formula I compounds with chemotherapeutic agents was measured by the cell proliferation assay of Example 11 and the results are compiled in Example iii. The CellTiter-Glo® Luminescent Cell Viability Assay (commercially available from Promega Corp., Madison, Wis.) is a homogeneous assay method based on the recombinant expression of Coleoptera luciferase (U.S. Pat. No. 5,583,024; U.S. Pat. No. 5,674,713; U.S. Pat. No. 5,700,670) and determines the number of viable cells in culture based on quantitation of the ATP present, an indicator of metabolically active cells (Crouch et al (1993) J. Immunol. Meth. 160:81-88; U.S. Pat. No. 6,602,677). The CellTiter-Glo® Assay was conducted in 96 or 384 well format, making it amenable to automated high-throughput screening (HTS) (Cree et al (1995) AntiCancer Drugs 6:398-404). The homogeneous assay procedure involves adding the single reagent (CellTiter-Glo® Reagent) directly to cells cultured in serum-supplemented medium. Cell washing, removal of medium and multiple pipetting steps are not required. The system detects as few as 15 cells/well in a 384-well format in 10 minutes after adding reagent and mixing.
# The homogeneous “add-mix-measure” format results in cell lysis and generation of a luminescent signal proportional to the amount of ATP present. […] Viable cells are reflected in relative luminescence units (RLU). […] Data can be recorded by luminometer or CCD camera imaging device. The luminescence output is presented as relative light units (RLU), measured over time.
# The combination index (CI) score is calculated by the Chou and Talalay method (Chou, T. and Talalay, P. (1984) Adv. Enzyme Regul. 22:27-55). […] The strength of synergy is assessed according to Chou and Talalay. […]
# The in vitro cell survival and proliferation assay (Cell-Titer Glo, Promega) measured viable cells over varying inhibitor concentrations (10^−3 to 10 μMolar, Relative Units, wherein a Relative Unit equals 0.3 micromolar for Compound 3, 0.3 micromolar for Formula A, and 0.1 micromolar for Formula B). […]
# [11] = tested on: bone marrow aspirate samples from multiple myeloma patients; assay: Primary cancer cell isolates from bone marrow aspirates, apoptosis; type: cell-based, human; settings: 0.3 or 1.0 micromolar; two of four cases
# Experimental: Shown in FIG. 2 are a summary of Combination Index values for Compound 3 in combination with different agents. The values shown were calculated at the ED50 of the dose response curves which were similar in nature to those exemplified in FIG. 1. Each dot in the plot represents the test results obtained with a different multiple myeloma cell line with a different combination of test agents, including Compound 3 plus a second agent as labeled on the abscissa. The horizontal line on the plot itself indicates the mean of all CI values for a given test agent. Combinations of Compound 3 with clinical standard of care chemotherapeutic agents including dexamethasone, lenalidomide, bortezomib, and melphalan produced variable results wherein CI values between about 0.1 and about 1 were obtained, with means generally greater than about 0.5. Compared to these clinically active agents, unexpectedly uniform and unexpectedly potent combination test results were obtained for Compound 3 in combination with Formula A, in which the majority of calculated CI values were less than about 0.2 and the mean across all cancer cell lines tested was about 0.2. In addition to these findings, bone marrow aspirate samples from multiple myeloma patients […] to test Formula A and Compound 3 singly and in combination on these primary cancer cell isolates.
# [12] = tested on: prostate cancer cell line PC3; assay: Cell Titer Glo proliferation and survival assay, PC3; type: cell-based; settings: PC3, FIG. 5
# Description: The results obtained here are representative of a subset of prostate cell lines tested.
# [13] = tested on: RPMI 8226.x1 multiple myeloma xenografts; assay: RPMI 8226.x1 multiple myeloma xenograft; type: in vivo, SCID Beige mice; settings: Formula A 75 mg/kg po qd x21, day 27
# Experimental: (§1) The efficacy of the combinations of the invention may be measured in vivo by implanting allografts or xenografts of cancer cells in rodents and treating the tumor-bearing animals with the combinations. Variable results are to be expected depending on the cell line, the presence or absence of certain mutations in the tumor cells, the sequence of administration of a formula I compound and chemotherapeutic agent, dosing regimen, and other factors. Subject mice were treated with drug(s) or control (Vehicle) and monitored over several weeks or more to measure the time to tumor doubling, log cell kill, and tumor inhibition.
# Dosing of all cohorts commenced on Day 0 when the mean tumor volume of all cohorts was between about 100 to 200 cubic millimeters.
# [14] = tested on: syngeneic A20 lymphoma tumors; assay: Syngeneic A20 lymphoma tumor model; type: in vivo, Balb/c mice; settings: Compound 3 25 and 50 mg/kg or Formula A 75 mg/kg po qd x21
# Experimental: The efficacy of the combinations of the invention may be measured in vivo by implanting allografts or xenografts of cancer cells in rodents and treating the tumor-bearing animals with the combinations. […] Subject mice were treated with drug(s) or control (Vehicle) and monitored over several weeks or more to measure the time to tumor doubling, log cell kill, and tumor inhibition.
# Dosing of all cohorts commenced on Day 0 when the mean tumor volume of all cohorts was between […]. […] At the conclusion of this study, femurs were collected and histological analysis of the bone marrow was conducted, and peripheral blood was collected for determination of blood cell counts.
# [15] = tested on: MM1.s multiple myeloma xenografts; assay: MM1.s multiple myeloma xenograft; type: in vivo, SCID mice; settings: Formula A 75 mg/kg po qd, day 18; compared with Compound 3 50 mg/kg
# Experimental: as §1
# Dosing of all cohorts commenced on Day 0 when the mean tumor volume of all cohorts was between about 200 to 300 cubic millimeters. […] Formula A was tested at as a single agent at a single dose level of 75 mg/kg for which a lesser TGI was obtained at day 18.
# [16] = incubated overnight, read-out: Prolif BaF3_PIM1 (IC50)
# [17] = incubated overnight, read-out: Prolif BaF3_PIM2 (IC50)
# [18] = 72 hours, read-out: Prolif MM1S ATP (EC50)
# Chain of BaF3 PIM2 cells (Q9P1W9 whole entry, change not shown): as the sequence (Q9P1W9 whole entry) above
# Chain of BaF3 PIM1 cells (P11309 whole entry, change not shown): as the sequence (P11309 whole entry) above
Ki [7] [nM],Ki [8] [nM],Ki [9] [nM],"GI50 [1, 16] [nM]","GI50 [2, 17] [nM]","EC50 [3, 18] [nM]",Compound,"lowest level reached by dose-response curve, of control value [10]",also measured
–,–,–,–,–,–,"O=C(Nc1c[nH]c2ncccc12)c1cnn2ccc(NCCc3ccccc3)nc12 [Compound PIMi, 5-(phenethylamino)-N-(1H-pyrrolo[2,3-b]pyridine-3-yl)pyrazolo[1,5-a]pyrimidine-3-carboxamide, reference compound]",–,"GI50 ([1]; Table 3, read-out: BaF3-Pim1): 400 nM; GI50 ([2]; Table 3, read-out: BaF3-Pim2): > 20000 nM; EC50 ([3]; Table 3, read-out: MM1.s): > 20000 nM; IC50 [4]: 12000 nM; IC50 [5]: 400 nM; IC50 [6]: > 5000 nM"
94.9,97.1,47.3,> 20000,> 20000,> 20000,"Nc1sc(C2CCCNC2)nc1C(=O)Nc1cnccc1N1CCCC(N)C1 (stereo not shown) [Example 65, 5-amino-N-(4-(3-aminopiperidin-1-yl)pyridin-3-yl)-2-(piperidin-3-yl)thiazole-4-carboxamide]",–,–
0.05,0.0894,0.022,40.6,2100,2800,"Nc1sc(-c2ncccc2F)nc1C(=O)Nc1cnccc1N1CCC[C@H](N)C1 [Example 66, (S)-5-amino-N-(4-(3-aminopiperidin-1-yl)pyridin-3-yl)-2-(3-fluoropyridin-2-yl)thiazole-4-carboxamide]",–,–
–,–,–,–,–,–,"CS(=O)(=O)N1CCN(Cc2cc3nc(-c4cccc5[nH]ncc45)nc(N4CCOCC4)c3s2)CC1 [Formula A, 4-(2-(1H-indazol-4-yl)-6-((4-(methylsulfonyl)piperazin-1-yl)methyl)thieno[3,2-d]pyrimidin-4-yl)morpholine, reference compound]",about 0%,"activity on primary cancer cell isolates [11]: only limited single agent activity; IC50 [12]: ~300 nM; tumor growth inhibition (TGI) [13]: 40%; effect on tumor growth, single agents [14]: no significant effect on tumor growth; tumor growth inhibition (TGI), in words [15]: lesser TGI"
–,–,–,–,–,–,"Cc1c(CN2CCN(C(=O)[C@H](C)O)CC2)sc2c(N3CCOCC3)nc(-c3cnc(N)nc3)nc12 [Formula B, (S)-1-(4-((2-(2-aminopyrimidin-5-yl)-7-methyl-4-morpholinothieno[3,2-d]pyrimidin-6-yl)methyl)piperazin-1-yl)-2-hydroxypropan-1-one]",about 0%,–

# From patent publication US8435976B2, “4-substituted pyridin-3-yl-carboxamide compounds and methods of use” (F. Hoffmann-La Roche, priority 2009, dated 2013)
